Source: paper PMC9200625, “Identification and Functional Characterization of Peptides With Antimicrobial Activity From the Syphilis Spirochete, Treponema pallidum” (Frontiers in Microbiology, 2022)
Read-outs that look alike come from different tables or passages of the source.

Assays:
S. enterica SL1344 = assay type: cell-based, Salmonella enterica subsp. enterica serovar Typhimurium; conditions: range over 3–9 independent experiments
Experimental: (§1) Bacterial strains used in this study were: E. coli ATCC 9723H, Pseudomonas aeruginosa ATCC 10148, Staphylococcus aureus ATCC 6538P (penicillin resistant), Streptococcus pyogenes (hospital isolate, strain unknown), Mycobacterium smegmatis MC^2155, N. gonorrhoeae ATCC 700825 (streptomycin resistant), and Salmonella enterica subsp. enterica serovar Typhimurium SL1344 (streptomycin resistant). E. coli, P. aeruginosa, S. aureus, M. smegmatis, and S. enterica were cultured aerobically at 37°C in Mueller Hinton broth (MHB) (Sigma-Aldrich, MO, United States) and on nonselective Mueller Hinton agar (MHA) plates. S. pyogenes was cultured in 5% carbon dioxide at 37°C in MHB supplemented with 5% lysed horse blood (Quad Five, MT, United States) (MHB + 5% HB) and on nonselective MHA plates supplemented with 5% defibrinated sheep blood (Quad Five, MT, United States) (MHA + 5% SB). N. gonorrhoeae was cultured in 5% carbon dioxide at 37°C in gonococcal (GC) chocolate broth medium and on nonselective GC agar plates [GC medium base (BD Difco, MD, United States) supplemented with 1% BBL™ hemoglobin (BD Biosciences, MD, United States) and 1% IsoVitaleX (BD Biosciences, MD, United States)]. Prior to antimicrobial susceptibility assays (as described below), N. gonorrhoeae cultures were subcultured on nonselective GC agar plates (as described above), to ensure bacterial viability. All bacterial stocks were stored in 20% glycerol at –80°C.
(§2) Bacterial suspensions were prepared by transferring bacterial colonies into MHB and resuspending using a vortex mixer to ensure complete suspension of any bacterial aggregates. Turbidity of the colony suspensions was adjusted spectrophotometrically to the required optical densities to achieve a turbidity equivalent to that of a 0.5 McFarland standard (1–2 × 10^8 CFU/mL) followed by dilution in MHB to achieve the standardized microbial inoculum of approximately 5 × 10^5 CFU/mL. Total viable counts (TVC) were routinely performed on all inoculum suspensions to ensure correct bacterial cell densities. […] Plates were incubated at 37°C for 16–24 h and MICs were determined using the unaided eye to identify the lowest concentration of AMP that inhibited visible growth of the tested bacterial species. […] MBCs were determined by plating the entire content of the wells containing the peptide/bacteria mixture representing the MIC and the entire contents of the preceding wells containing two-fold and four-fold more concentrated AMP dilutions onto nonselective agar plates.

M. smegmatis MC^2155 = assay type: cell-based, Mycobacterium smegmatis; conditions: range over 3–9 independent experiments
Experimental: as §1
(§3) Bacterial suspensions were prepared by transferring bacterial colonies into MHB and resuspending using a vortex mixer to ensure complete suspension of any bacterial aggregates. Turbidity of the colony suspensions was adjusted spectrophotometrically to the required optical densities to achieve a turbidity equivalent to that of a 0.5 McFarland standard (1–2 × 10^8 CFU/mL) followed by dilution in MHB to achieve the standardized microbial inoculum of approximately 5 × 10^5 CFU/mL. Total viable counts (TVC) were routinely performed on all inoculum suspensions to ensure correct bacterial cell densities. The standardized bacterial suspensions were then incubated with two-fold serial dilutions of each peptide (dissolved in 11 μL of ultrapure sterile water; final peptide concentration range of 256 μg/mL–0.5 μg/mL) in Greiner polypropylene round bottom 96-well microtiter plates (Sigma-Aldrich, MO, United States). Each peptide was tested once per experiment, with a range of 3–9 independent experiments performed per peptide. Negative growth/sterility control wells contained bacterial growth media (100 μL) and the peptide solvent (11 μL of ultrapure sterile water). Positive growth control wells contained the standardized number of bacterial cells (100 μL of ∼ 5.0 × 10^5 CFU/mL) and peptide solvent (11 μL of ultrapure sterile water). Plates were incubated at 37°C for 16–24 h and MICs were determined using the unaided eye to identify the lowest concentration of AMP that inhibited visible growth of the tested bacterial species. If the sterility control well was turbid, the test was not considered valid. MBCs were determined by plating the entire content of the wells containing the peptide/bacteria mixture representing the MIC and the entire contents of the preceding wells containing two-fold and four-fold more concentrated AMP dilutions onto nonselective agar plates.

S. aureus ATCC 6538P = assay type: cell-based, Staphylococcus aureus; conditions: range over 3–9 independent experiments
Experimental: as §1, §2

[1] = system: N. gonorrhoeae ATCC 700825; assay type: cell-based, Neisseria gonorrhoeae; conditions: 3-h incubation 37°C 5% CO2, TVCs versus positive growth control, all of three to six independent experiments
Experimental: as §1
The potential antimicrobial activity of the T. pallidum peptides against N. gonorrhoeae was determined using a modified agar dilution method. In this assay, N. gonorrhoeae colonies from GC chocolate agar plates were resuspended in MHB and the turbidity of the suspension was adjusted, as described above, to achieve the standardized microbial inoculum of approximately 5 × 10^5 CFU/mL. A two-fold serial dilution of the peptides (11 μL in sterile ultrapure water) was then prepared in wells 1–10 of a 96-well sterile polypropylene plate to obtain a dilution series corresponding to 10 times the required testing concentrations (2,560, 1,280, 640, 320, 160, 80, 40, 20, 10, 5 μg/mL). The bacterial suspension (100 μL) was dispensed into the wells containing the peptides. A negative growth/sterility control (well 12) contained bacterial growth media (100 μL) and the peptide solvent (11 μL of ultrapure sterile water). A positive growth control (well 11) contained the standardized number of bacterial cells (100 μL of ∼ 5.0 × 10^5 CFU/mL) and peptide solvent (11 μL of ultrapure sterile water). The 96-well plate was then incubated at 37°C in an atmosphere of 5% CO2 for 3 h to allow for peptide binding and antimicrobial activity. After the incubation period, an aliquot (20 μL) from wells 1–12 was removed and spotted onto the surface of a GC chocolate agar plate. N. gonorrhoeae spotted plates and TVC plates were incubated at 37°C in an atmosphere of 5% CO2 for 18–24 h. […] To determine the bactericidal activity of peptides, total viable counts (TVCs) were also prepared on GC chocolate agar plates for the 3 h-incubated peptide/bacteria mixtures. These counts were compared with TVCs from the corresponding positive growth wells to give the percentage of bacteria killed by each of the peptides following the 3-h incubation.

P. aeruginosa ATCC 10148 = assay type: cell-based, Pseudomonas aeruginosa; conditions: range over 3–9 independent experiments
Experimental: as §1, §3

E. coli ATCC 9723H = assay type: cell-based; conditions: range over 3–9 independent experiments
Experimental: as §1, §3

[2] = system: S. pyogenes Unknown strain; Clinical Isolate; assay type: cell-based, Streptococcus pyogenes; conditions: range over 3–9 independent experiments
Experimental: as §1, §3

[3] = broth microdilution in MHB, ~5 × 10^5 CFU/mL, peptide 256–0.5 μg/mL two-fold dilutions, 37°C 16–24 h, visible growth by unaided eye
[4] = wells at MIC, two-fold and four-fold higher plated on nonselective agar, 24 h 37°C

CC[C@H](C)[C@H](NC(=O)[C@H](CCCCN)NC(=O)[C@H](CCC(=O)O)NC(=O)[C@H](CCCCN)NC(=O)[C@H](CO)NC(=O)[C@H](CCCCN)NC(=O)[C@H](CCCNC(=N)N)NC(=O)[C@H](Cc1ccccc1)NC(=O)[C@H](Cc1ccccc1)NC(=O)[C@H](CC(=O)O)NC(=O)CNC(=O)[C@H](CC(C)C)NC(=O)[C@@H](N)CC(C)C)C(=O)NCC(=O)N[C@@H](CCCCN)C(=O)N[C@@H](CCC(=O)O)C(=O)N[C@@H](Cc1ccccc1)C(=O)N[C@@H](CCCCN)C(=O)N[C@@H](CCCNC(=N)N)C(=O)N[C@H](C(=O)N[C@H](C(=O)N[C@@H](CCC(N)=O)C(=O)N[C@@H](CCCNC(=N)N)C(=O)N[C@H](C(=O)N[C@@H](CCCCN)C(=O)N[C@@H](CC(=O)O)C(=O)N[C@@H](Cc1ccccc1)C(=O)N[C@@H](CC(C)C)C(=O)N[C@@H](CCCNC(=N)N)C(=O)N[C@@H](CC(N)=O)C(=O)N[C@@H](CC(C)C)C(=O)N[C@H](C(=O)N1CCC[C@H]1C(=O)N[C@@H](CCCNC(=N)N)C(=O)N[C@H](C(=O)N[C@@H](CCC(=O)O)C(=O)N[C@@H](CO)C(=O)O)[C@@H](C)O)C(C)C)[C@@H](C)CC)C(C)C)[C@@H](C)CC [LL-37]
MIC (S. enterica SL1344; [3]): 1.8 to 28.5 µM | MBC (S. enterica SL1344; [4]): 1.8 to 28.5 µM | MIC (M. smegmatis MC^2155; [3]): 0.45 to 1.8 µM | MBC (M. smegmatis MC^2155; [4]): 0.45 to 1.8 µM | MIC (S. aureus ATCC 6538P; penicillin resistant strain, broth microdilution in MHB, ~5 × 10^5 CFU/mL, peptide 256–0.5 μg/mL two-fold dilutions, 37°C 16–24 h, visible growth by unaided eye): 7.1 to 28.5 µM | MBC (S. aureus ATCC 6538P; [4]): 7.1 to 57.0 µM | N. gonorrhoeae killing (%) ([1]; peptide 32 μg/mL): 100% | N. gonorrhoeae killing (%) ([1]; peptide 64 μg/mL): 100% | N. gonorrhoeae killing (%) ([1]; peptide 128 μg/mL): 100% | N. gonorrhoeae killing (%) ([1]; peptide 256 μg/mL): 100% | MIC (P. aeruginosa ATCC 10148; [3]): 3.6 to 14.2 µM | MBC (P. aeruginosa ATCC 10148; [4]): 3.6 to 14.2 µM | MIC (E. coli ATCC 9723H; [3]): 1.8 to 7.1 µM | MBC (E. coli ATCC 9723H; [4]): 1.8 to 7.1 µM | MIC ([2]; broth microdilution, cultured in MHB + 5% lysed horse blood, 5% carbon dioxide, ~5 × 10^5 CFU/mL, peptide 256–0.5 μg/mL, 37°C 16–24 h, visible growth): 28.5 to 57.0 µM | MBC [2, 4]: 28.5 to 57.0 µM
